Assay results taken from patent US10093651B2, “Ghrelin O-acyl transferase inhibitors” (Eli Lilly and Company, priority 2015, dated 2018).
One block for each compound: values may come before it.

Legend:
human GOAT = human GOAT (Homo sapiens (Human), UniProt Q96T53); assay: In vitro cell free human GOAT enzymatic assay; assay type: biochemical; details: purified GOAT enzyme, ELISA readout of acyl-ghrelin
Method: In Vitro Cell Free Human GOAT Enzymatic Assay
Human GOAT gene (Accession number: NM 001100916) is subcloned to pAN51 baculoviral expression vector. Baculovirus stock is prepared following the Bac-to-Bac Protocol provided by the vendor, Invitrogen, California, USA. Five mililiters of human GOAT baculoviral stock are added to 500 mL SDf cells in HyQ SFX-Insect™ media (HyClone catalog number SF130278.02) at the density of 1×10^6 cells per milliliter in a 2 L Erlenmeyer flask. The flask with human GOAT gene infected Sf9 cells is put on a plate shaker at 120 rpm at 28° C. for 48 hours. After 48 hours incubation, cells are centrifuged at 1,000×g for 10 min at 4° C. The cell pellets are collected and stored at −80° C. in a freezer until ready for further processing.
Preparation of Microsomal Membrane of GOAT Enzyme for the Enzymatic Assay:
One gram cell pellets are suspended in 9 mL chilled homogenization buffer (50 mM Tris-HCl, 250 mM sucrose, adjusted to pH 7.5 and sterile filtered through 0.2 μm Millipore filter). The cell suspension is transferred to a Dounce glass homogenizer. Cell pellets are homogenized with 40 strokes on ice. The homogenate is centrifuged at 3,000 rpm in a Beckman swing bucket rotor at 4° C. for 10 min to remove unbroken cells. The supernatant is collected and centrifuged at 40,000×g for 1 hour at 4° C. The resulting membrane pellet is suspended in the homogenization buffer using a Dounce glass homogenizer and stored at −20° C. in the freezer for the assay. For long term storage of the human GOAT enzyme membrane preparation, the suspended membrane is stored in a −80° C. freezer.
Human GOAT Enzymatic Assay Protocol:
Prepare test compounds in DMSO to make up a 0.2 mM stock solution. Serially dilute the stock solution in DMSO to obtain a ten-point dilution curve with final compound concentrations ranging from 10 μM to 0.5 nM in a 96-well round-bottom plate. Prepare enzyme and substrate solutions in assay buffer (0.02% TWEEN™-20 in 50 mM Tris, pH 7.5/250 mM sucrose/1 mg/mL BSA/10 mM EDTA). Add diluted compound (1 μL) to each well of row A to N of a corresponding low protein binding 384 well plate. Add human GOAT substrate mix (10 μL), consisting of human desacyl-ghrelin-biotin (CPC Scientific Inc., 6.0 μM final), octanoyl-coenzyme A (CoA) (Sigma, 60 μM final) and an AG specific antibody (WO 2006/091381)([…] final), to the compounds. Add GOAT-His/sf9 enzyme preparation, that has been prepared in assay buffer (9 μL), to each well of the plate containing substrate and test compounds resulting in a final concentration of 0.01 μg/mL to initiate the reaction. Incubate the mixture for 1 hour at RT on a gently rotating oscillator. Add 4M guanidine hydrochloride (20 μL) to all wells, mix, and incubate for 3 hours to stop the reaction.
Prepare ELISA plates (STREPTAVIDIN SPECTRAPLATE™ 384, Perkin Elmer) by blocking with 2% Heat-Inactivated FBS in PBS (40 μL) (Invitrogen) blocking buffer for 3 hours. Aspirate the blocking buffer from ELISA plate and add blocking buffer (23 μL) to columns 1-24, rows A-N. Reserve rows O and P for the acylghrelin standard curve. Add the reaction mix (2 μL) to the ELISA plates. Prepare a 10 point standard curve (biotin-labeled octanoyl-ghrelin) by serial 2× dilution in blocking buffer containing 0.2M Guanidine hydrochloride starting at 2.5 pM. Incubate the reaction mixture or biotin-labeled AG standard in the ELISA plate overnight at 4° C. […]

GOAT = GOAT (Mus musculus (Mouse), UniProt P0C7A3); assay: In vivo dose dependent 3 day BID study for GOAT inhibitor (plasma AG and UAG by ELISA); design: species or system male C57BL/6 mice; details: mice, 3 days; for reduction in AG to total ghrelin ratio: compared to vehicle-treated control animals; for decrease of plasma AG / increase of UAG: vs vehicle; for AG (% of control) / AG/Total-ghrelin (% of vehicle control) / UAG (% of vehicle control) / increase of UAG: plasma
Chain of GOAT (P0C7A3 whole entry): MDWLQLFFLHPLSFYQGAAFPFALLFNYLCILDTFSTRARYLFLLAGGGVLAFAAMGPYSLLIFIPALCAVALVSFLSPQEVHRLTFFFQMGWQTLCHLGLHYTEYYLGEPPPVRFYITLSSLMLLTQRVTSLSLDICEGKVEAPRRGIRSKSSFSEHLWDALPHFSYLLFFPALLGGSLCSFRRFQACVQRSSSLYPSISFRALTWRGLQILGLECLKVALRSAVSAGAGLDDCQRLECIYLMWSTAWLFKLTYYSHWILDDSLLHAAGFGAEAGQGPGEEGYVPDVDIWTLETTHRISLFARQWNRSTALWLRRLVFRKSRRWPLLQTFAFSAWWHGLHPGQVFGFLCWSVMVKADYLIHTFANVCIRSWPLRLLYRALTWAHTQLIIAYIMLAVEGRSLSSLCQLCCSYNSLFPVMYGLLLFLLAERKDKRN
Method: Comparing the change in the ratio of AG to total ghrelin in the compound treated group and that of the vehicle treated group reflects the degree of GOAT enzyme inhibition in vivo, due to the dynamic processing of UAG to AG by the GOAT enzyme. In the in vivo pharmacodynamic studies herein, the levels of AG and UAG in plasma and stomach in the vehicle and compound treated groups are measured by ELISA specifically to these two analytes. The total ghrelin level of each sample is computed as the sum of AG and UAG by these ELISA measurements. The ratio of AG to total ghrelin is defined by the level of AG in each sample divided by the level of total ghrelin in the same sample. The levels of AG, UAG and ratio of AG to total ghrelin in the vehicle treated group is computed and set as 100%. The relative change of these parameters in the compound treated group is then computed to determine the effectiveness of the test compound.
In Vivo Dose Dependent 3 Day BID Study for GOAT Inhibitor:E
Purchase male C57BL/6 mice from Harlaan (Indianapolis, Ind.) at 9 weeks of age. House the mice individually in a temperature-controlled (24° C.) facility with a 12 hours light/dark cycle (lights on 2200 h), and allow free access to a standard rodent chow (diet 2014, Harlan) and water. Typically, use the mice when they are 10-13 weeks of age at the time of the study. On day 0 of the experiment, randomize the mice into treatment groups (N=7/group) so each group has similar mean body weights. On day 1 and day 2, treat the animals with vehicle (1% hydroxyethylcellulose, 0.25% TWEEN™ 80, 0.05% antifoam) or test compound prepared in the vehicle as suspension at various dosages by oral gavage at 7 am and 7 pm. On day 3, fast the animals, move them into clean cages and dose with vehicle or the test compound again at 8 am by oral gavage. That same day at 1 pm, sacrifice the animals by decapitation to collect blood. For details of blood collection and plasma treatments see Blood collection and Extraction of Ghrelin from Plasma section below.
Collect approximately 600 μL blood into a pre-weighed EDTA tube containing 600 μL (defined as Vpreservative) freshly-prepared preservative (4 mM PEFABLOC® [4-(2-aminoethyl) benzenesulfonyl fluoride hydrochloride], 72 mM NaCl, 58 mM NaF, 0.032 N hydrochloric acid, pH 3.0) and mix immediately. Weigh the tube again and keep on ice. To accurately determine the exact blood volume of each sample using this blood collection procedure, the weight of the blood for each mouse is computed using the following equation: Weight of Blood=(Weight of the tube containing Blood+preservative)−(Weight of the tube containing preservative) Blood volume (Vblood)=(Weight of blood)/1.06
Note, the density of rodent blood is assumed as 1.06 g/mL.
Within 15 minutes after the blood collection, samples are centrifuged at 5000 rpm at 4° C. for 8 min. Remove plasma (650 μL) to a 5 mL glass tube containing 1 N hydrochloric acid (65 μL), mix and keep on ice.
Ghrelin Extraction by SEP-PAK® Column:
AG and UAG are extracted from plasma using SEP-PAK®_C18 column to remove interference prior to performing the ELISA. The solid phase extraction of AG and UAG peptides by SEP-PAK®_C18 columns can be performed on a vacuum manifold (Waters Corp) or using a peristaltic pump. The sample SEP-PAK®_column extraction procedure is independently applied to the plasma sample obtained from each individual mouse. The general extraction protocol is described as follows.
All solutions used for the entire protocol of the SEP-PAK® column extraction should be at ice cold condition. Wet SEP-PAK®_columns (WAT054960, Waters Corp, Milford Mass.) with 99.9% ACN/0.1% TFA (1 mL of solution of 100 mL ACN/0.1 mL TFA). […] Once liquid is removed from the column, stop the pressure. Equilibrate the columns with 3% ACN/0.1% TFA (I mL of 97 mL water, 3 mL ACN, 0.1 mL TFA). […] Dilute approximately 650 μL acidified plasma (defined as Vplasma added to column) to 1.4 mL ice cold 0.1% TFA. […]

Chain of human GOAT (Q96T53 whole entry): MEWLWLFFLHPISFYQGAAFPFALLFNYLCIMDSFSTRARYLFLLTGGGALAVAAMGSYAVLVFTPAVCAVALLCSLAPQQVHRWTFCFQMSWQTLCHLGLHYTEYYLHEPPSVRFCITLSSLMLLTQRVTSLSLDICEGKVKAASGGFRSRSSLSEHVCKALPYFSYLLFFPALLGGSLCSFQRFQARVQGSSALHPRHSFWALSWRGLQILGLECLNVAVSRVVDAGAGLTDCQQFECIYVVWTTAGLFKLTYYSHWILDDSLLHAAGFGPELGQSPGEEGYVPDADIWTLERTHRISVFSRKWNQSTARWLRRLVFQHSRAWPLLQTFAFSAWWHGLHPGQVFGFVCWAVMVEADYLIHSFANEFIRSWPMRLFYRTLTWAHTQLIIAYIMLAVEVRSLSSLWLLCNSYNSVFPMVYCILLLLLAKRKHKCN

SMILES: COC(=O)N[C@@H](C)C(=O)N1CCC(CCc2c(C)nc(C(F)(F)F)nc2N)CC1 [Example 20, Methyl-[(1S)-2-[4-[2-[4-amino-6-methyl-2-(trifluoromethyl)pyrimidin-5-yl]ethyl]-1-piperidyl]-1-methyl-2-oxo-ethyl]carbamate]
IC50 (human GOAT): 615 nM

SMILES: COc1ccccc1C(=O)N[C@@H](C)C(=O)N1CCC(CCc2c(C)nc(C(F)(F)F)nc2N)CC1 [Example 17, N-[(1S)-2-[4-[2-[4-Amino-6-methyl-2-(trifluoromethyl)pyrimidin-5-yl]ethyl]-1-piperidyl]-1-methyl-2-oxo-ethyl]-2-methoxy-benzamide]
IC50 (human GOAT): 420 nM

Continued by falling IC50 (human GOAT), values first:

IC50 (human GOAT): 276 nM
SMILES: Cc1nc(C(F)(F)F)nc(N)c1CCC1CCN(C(=O)[C@H](C)NC(=O)CO)CC1 [Example 18, N-[(1S)-2-[4-[2-[4-Amino-6-methyl-2-(trifluoromethyl)pyrimidin-5-yl]ethyl]-1-piperidyl]-1-methyl-2-oxo-ethyl]-2-hydroxy-acetamide]

reduction in AG to total ghrelin ratio (GOAT; 0.1 mg/kg): 57% | decrease of plasma AG (GOAT; 0.1 mg/kg): 40% | reduction in AG to total ghrelin ratio (GOAT; 0.3 mg/kg): 62% | decrease of plasma AG (GOAT; 0.3 mg/kg): 60% | reduction in AG to total ghrelin ratio (GOAT; 1 mg/kg): 79% | decrease of plasma AG (GOAT; 1 mg/kg): 56% | reduction in AG to total ghrelin ratio (GOAT; 3 mg/kg): 82% | decrease of plasma AG (GOAT; 3 mg/kg): 63% | reduction in AG to total ghrelin ratio (GOAT; 10 mg/kg): 82% | decrease of plasma AG (GOAT; 10 mg/kg): 63% | AG (% of control) (GOAT; 0.1 mg/kg oral gavage BID): 60 ± 8 (n = 7) % of control | AG/Total-ghrelin (% of vehicle control) (GOAT; 0.1 mg/kg oral gavage BID): 43 ± 3 (n = 7) % of vehicle control | UAG (% of vehicle control) (GOAT; 0.1 mg/kg oral gavage BID): 210 ± 43 (n = 7) % of vehicle control | increase of UAG (GOAT; 0.1 mg/kg): 2.10 fold | AG (% of control) (GOAT; 0.3 mg/kg oral gavage BID): 40 ± 10 (n = 7) % of control | AG/Total-ghrelin (% of vehicle control) (GOAT; 0.3 mg/kg oral gavage BID): 28 ± 1 (n = 7) % of vehicle control | UAG (% of vehicle control) (GOAT; 0.3 mg/kg oral gavage BID): 222 ± 54 (n = 7) % of vehicle control | increase of UAG (GOAT; 0.3 mg/kg): 2.22 fold | AG (% of control) (GOAT; 1 mg/kg oral gavage BID): 44 ± 6 (n = 14) % of control | AG/Total-ghrelin (% of vehicle control) (GOAT; 1 mg/kg oral gavage BID): 21 ± 1 (n = 14) % of vehicle control | UAG (% of vehicle control) (GOAT; 1 mg/kg oral gavage BID): 357 ± 30 (n = 14) % of vehicle control | increase of UAG (GOAT; 1 mg/kg): 3.57 fold | AG (% of control) (GOAT; 3 mg/kg oral gavage BID): 37 ± 9.6 (n = 14) % of control | AG/Total-ghrelin (% of vehicle control) (GOAT; 3 mg/kg oral gavage BID): 18 ± 5 (n = 14) % of vehicle control | UAG (% of vehicle control) (GOAT; 3 mg/kg oral gavage BID): 349 ± 41 (n = 14) % of vehicle control | increase of UAG (GOAT; 3 mg/kg): 3.49 fold | AG (% of control) (GOAT; 10 mg/kg oral gavage BID): 37 ± 9.9 (n = 7) % of control | AG/Total-ghrelin (% of vehicle control) (GOAT; 10 mg/kg oral gavage BID): 18 ± 3 (n = 7) % of vehicle control | UAG (% of vehicle control) (GOAT; 10 mg/kg oral gavage BID): 378 ± 59 (n = 7) % of vehicle control | increase of UAG (GOAT; 10 mg/kg): 3.78 fold | IC50 (human GOAT): 69.5 ± 0.6 nM
SMILES: Cc1nc(C(F)(F)F)nc(N)c1CCC1CCN(C(=O)[C@H](C)NC(=O)c2ccnn2C)CC1 [Example 2, N-[(1 S)-2-[4-[2-[4-Amino-6-methyl-2-(trifluoromethyl)pyrimidin-5-yl]ethyl]-1-piperidyl]-1-methyl-2-oxo-ethyl]-2-methyl-pyrazole-3-carboxamide]

IC50 (human GOAT): 55.7 nM
SMILES: Cc1nc(C(F)(F)F)nc(N)c1CCC1CCN(C(=O)[C@H](C)NC(=O)c2nccnc2Cl)CC1 [Example 15, N-[(1S)-2-[4-[2-[4-Amino-6-methyl-2-(trifluoromethyl)pyrimidin-5-yl]ethyl]-1-piperidyl]-1-methyl-2-oxo-ethyl]-3-chloro-pyrazine-2-carboxamide]
